Data reported in article PMC6271245, “Discovery of Gramine Derivatives That Inhibit the Early Stage of EV71 Replication in Vitro” (Molecules, 2014).

Columns and labels:
EV71 protein = test: Viral protein by indirect immunofluorescence in RD cells; assay type: cell-based, Enterovirus 71; settings: 40 µg/mL post-infection, RD cells, 4, 8 or 24 h
Method: (§1) Figure 4 The effect of 4s on EV71 replication in RD cells. RD cells infected with 100 TCID50 of EV71 were incubated in the absence (virus control) or presence of 40 µg/mL 4s and harvested at the indicated times pi. (A) Total RNA was extracted from cells and culture supernatants and EV71 RNA levels were measured. Cellular actin amplification was used for normalization. The ΔΔCt data were calculated from three independent experiments; (B) EV71-protein was determined by indirect immunofluorescence using a mouse anti-enterovirus 71 monoclonal antibody and an Alexa-Fluor-488-conjugated AffiniPure goat anti-mouse IgG (H + L). The nucleus was stained with DAPI; the green foci indicate the presence of EV71 protein.
The influence of 4s on the replication of EV71 was also determined at the translational level. The RD cells grown in 24 coverslips were infected with EV71 and treated with 40 µg/mL 4s post-infection, intracellular viral protein was detected by indirect immunofluorescence analysis after incubation for 4, 8 or 24 h. […]

EV71-infected RD cells = test: EV71-induced apoptosis, Annexin-V/propidium iodide flow cytometry; assay type: cell-based, Human; settings: 40 µg/mL, 100 TCID50 EV71, 36–48 h
Method: EV71 adsorption, internalization, entry, uncoating, and viral RNA replication are […] to trigger infected cell apoptosis, but it is required for viral protein synthesis. Flow cytometry was performed to investigate the effect of 4s on virus-induced cell apoptosis. In the assays, EV71-infected cells were stained with Annexin-V-fluorescein and propidium iodide; fluorescence drifting indicates cells undergoing apoptosis.
Figure 5 Inhibition effect of 4s on EV71-induced apoptosis. RD cells were (A) left untreated or (B) infected with 100 TCID50 of EV71. After viral adsorption, RD cells were incubated in the (B) absence or (C) presence of 40 µg/mL 4s for 36–48 h; (D) The cells were stained with Annexin-V- fluorescein and propidium iodide and measured using flow cytometry. TEXT PRINTED IN THE PICTURE: (C) Virus + 4s: Q1 3.21%; Q2 4.06%; Q4 89.2%; Q3 3.55% DOUBTS OF THE COPYIST ABOUT THIS PICTURE: Panels A (Mock) and B (Virus control) also print quadrant percentages (A: 0.548%, 1.84%, 93.9%, 3.75%; B: 1.32%, 40.1%, 23.7%, 34.9%). I left them out because they are controls without a substance.
For the apoptosis assay, RD cells in 6-well plates infected with 100 TCID50 of EV71 were left untreated or treated with 40 µg/mL 4s for 36–48 h, until the CPEs of virus control cells reached 70%–80%. […]

EV71 RNA = test: Viral RNA synthesis by quantitative RT-PCR in RD cells; assay type: cell-based, Enterovirus 71; settings: 40 µg/mL
Method: To further analyze the effect of 4s on EV71 replication in RD cells, the efficacy of 4s in inhibiting viral RNA synthesis was analyzed by quantitative reverse transcription polymerase chain reaction (RT-PCR). The infected cells treated with or without 40 µg/mL 4s were harvested at 4, 8, 24 and 36 h pi to examine the relative amount of viral RNA. The fold difference of RNA for all the samples was calculated relative to the RNA level in the EV71-infected cells (virus control) at 4 h pi.
as §1
The EV71 RNA was extracted from infected cells and culture supernatants with TRIzol (Gibco-Invitrogen, Carlsbad, CA, USA) and reverse-transcribed using a PrimeScript RT reagent kit (TaKaRa, Dalian, China) according to the manufacturer’s instructions. The products of reverse transcription were quantified with the SYBR Premix Ex Taq II (perfect real time) kit (TaKaRa) and detected with a Step One Plus sequence detection system (Applied Biosystems, Foster City, CA, USA). Expression of actin was used as an internal standard. The special primer sequences were: EV71-VP1-F: 5'-[…]-3', EV71-VP1-R: 5'-GTCTCAATCATGCTCTC GTCACT-3'; Actin-F: 5'-[…]-3', Actin-R: 5'-AGGGGCCGGACTCGT CATACT-3'.

## c1ccc(C(Nc2nc3ccccc3s2)c2c[nH]c3ccccc23)nc1 (stereo not drawn) [Compound 4s]
EV71 protein
  viral protein synthesis (immunofluorescent foci): suppressed
EV71-infected RD cells
  EV71-induced apoptosis (fluorescence drifting): fluorescence drifting could hardly be observed
EV71 RNA; 4 h pi
  fold reduction of viral RNA copy number vs virus control: 1.8 fold
EV71 RNA; 8 h pi
  fold reduction of viral RNA copy number vs virus control: 9.0 fold
EV71 RNA; 24 h pi
  fold reduction of viral RNA copy number vs virus control: 79.8 fold
EV71 RNA; 36 h pi
  fold reduction of viral RNA copy number vs virus control: 174.7 fold
